Measured values taken from patent US20100069378A1, “SUBSTITUTED INDANYL SULFONAMIDE COMPOUNDS, THEIR PREPARATION AND USE AS MEDICAMENTS” (LABORATORIOS DEL DR. ESTEVE, S.A., priority 2006, published 2010).
Where a name gives a salt, the structure may show the parent alone.

Target: T1, 5HT6 human recombinant receptor (Homo sapiens, UniProt P50406)
T1 construct: purchased Receptor Biology; host or cells: HEK-293 cell membranes (recombinant expression)
Test: Binding Test to 5-HT6 Receptors ([3H]-LSD displacement, HEK-293 membranes)
Settings: [3H]-LSD 2.7 nM, 60 min, 37° C.; for inhibition at 0.1 µM: compound at 10^−7 M; for inhibition at 0.01 µM: compound at 10^−8 M
Method: Binding Test to 5-HT6 Receptors
Membranes of HEK-293 cells expressing the 5HT6 human recombinant receptor were supplied by Receptor Biology. In these membranes the receptor concentration is 2.18 pmol/mg protein and the protein concentration is 9.17 mg/ml. The experimental protocol follows the method of B. L. Roth et al. [B. L. Roth, S. C. Craigo, M. S. Choudhary, A. Uluer, F. J. Monsma, Y. Shen, H. Y. Meltzer, D. R. Sibley: Binding of Typical and Atypical Antipsychotic Agents to 5-Hydroxytryptamine-6 and Hydroxytriptamine-7 Receptors. The Journal of Pharmacology and Experimental Therapeutics, 1994, 268, 1403] with slight modifications. The commercial membrane is diluted (dilution 1:40) with the binding buffer: 50 mM Tris-HCl, 10 mM MgCl2, 0.5 mM EDTA (pH 7.4). The radioligand used is [^3H]-LSD at a concentration of 2.7 nM with a final volume of 200 μl. Incubation is initiated by adding 100 μl of the membrane suspension (≈22.9 μg membrane protein), and continues for 60 minutes at a temperature of 37° C. Incubation ends by fast filtration in a Harvester Brandel Cell through glass fibre filters manufactured by Schleicher & Schuell GF 3362 pre-treated with a 0.5% polyethylenimine solution. The filters are washed three times with three millilitres of Tris-HCl 50 mM pH 7.4 buffer. The filters are transferred to phials and to each phial 5 ml of liquid scintillation cocktail Ecoscint H is added. The phials are allowed to reach equilibrium for several hours before being counted in a Wallac Winspectral 1414 scintillation counter. Non-specific binding is determined in the presence of 100 μM serotonin. The tests are performed in triplicate. The inhibition constants (Ki, nM) are calculated by non-linear regression analysis using the program EBDA/LIGAND [Munson and Rodbard, Analytical Biochemistry, 1980, 107, 220].

T1 sequence (P50406 whole entry): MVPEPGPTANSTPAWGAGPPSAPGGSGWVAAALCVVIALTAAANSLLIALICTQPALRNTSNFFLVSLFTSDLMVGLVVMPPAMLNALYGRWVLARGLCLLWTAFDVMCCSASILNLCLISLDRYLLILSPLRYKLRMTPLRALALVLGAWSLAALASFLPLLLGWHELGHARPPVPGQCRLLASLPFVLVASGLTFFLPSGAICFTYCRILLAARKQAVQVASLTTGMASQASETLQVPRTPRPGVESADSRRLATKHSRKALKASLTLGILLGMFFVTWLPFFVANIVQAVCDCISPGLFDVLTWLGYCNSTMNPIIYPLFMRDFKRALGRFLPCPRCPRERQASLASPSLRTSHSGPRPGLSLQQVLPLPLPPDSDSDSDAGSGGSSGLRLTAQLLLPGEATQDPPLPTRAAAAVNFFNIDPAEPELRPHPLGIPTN

Structure (SMILES)	inhibition at 0.1 µM	inhibition at 0.01 µM
CN1CCN(C2CCc3ccc(NS(=O)(=O)c4c(Cl)nc5sccn45)cc32)CC1 (racemic) [Compound 4, N-[3-(4-methylpiperazin-1-yl)-2,3-dihydro-1H-inden-5-yl]-6-chloroimidazo[2,1-b][1,3]thiazole-5-sulfonamide]	83.4%	63%
CN1CCN(C2CCc3ccc(NS(=O)(=O)c4ccc5ccccc5c4)cc32)CC1 (centres unmarked) [Compound 2, N-[3-(4-methylpiperazin-1-yl)-2,3-dihydro-1H-inden-5-yl]naphtalene-2-sulfonamide]	89.1%	71.6%
Cc1c(S(=O)(=O)Nc2ccc3c(c2)C(N2CCN(C)CC2)CC3)sc2ccc(Cl)cc12 (centres unmarked) [Compound 3, N-[3-(4-methylpiperazin-1-yl)-2,3-dihydro-1H-inden-5-yl]-5-chloro-3-methylbenzo[b]thiophene-2-sulfonamide]	87.9%	55.7%
O=S(=O)(Nc1ccc2c(c1)C(N1CCNCC1)CC2)c1c(Cl)nc2sccn12 (centres unmarked) [Compound 5, N-[3-(piperazin-1-yl)-2,3-dihydro-1H-inden-5-yl]-6-chloroimidazo[2,1-b][1,3]thiazole-5-sulfonamide]	85.6%	63.6%
N=C(N)N/N=C1/CCc2ccc(NS(=O)(=O)c3ccc4ccccc4c3)cc21 [Compound 8, 2-{6-[(2-naphthylsulfonyl)amino]-2,3-dihydro-1H-inden-1-ylidene}hydrazinecarboximidamide hydrochloride]	82.2%	56.1%
N=C(N)N/N=C1/CCc2ccc(NS(=O)(=O)c3c(Cl)nc4sccn34)cc21 [Compound 9, 2-(6-{[(6-chloroimidazo[2,1-b][1,3]thiazol-5-yl)sulfonyl]amino}-2,3-dihydro-1H-inden-1-ylidene)hydrazinecarboximidamide]	89.6%	84.7%
CC1Cc2ccc(NS(=O)(=O)c3c(Cl)nc4sccn34)cc2/C1=N\NC(=N)N (centres unmarked) [Compound 11, 2-(6-{[(6-chloroimidazo[2,1-b][1,3]thiazol-5-yl)sulfonyl]amino}-2-methyl-2,3-dihydro-1H-inden-1-ylidene)hydrazinecarboximidamide]	91.1%	84.7%
CN1CCN(C2CCc3cc(NS(=O)(=O)c4c(Cl)nc5sccn45)ccc32)CC1 (centres unmarked) [Compound 14, 6-chloro-N-[1-(4-methylpiperazin-1-yl)-2,3-dihydro-1H-inden-5-yl]imidazo[2,1b][1,3]thiazole-5-sulfonamide]	85.8%	75.5%
CN1CCN(C2CC(C)(C)c3ccc(NS(=O)(=O)c4c(Cl)nc5sccn45)cc32)CC1 (centres unmarked) [Compound 15, 6-chloro-N-[1,1-dimethyl-3-(4-methylpiperazin-1-yl)-2,3-dihydro-1H-inden-5-yl]imidazo[2,1-b][1,3]thiazole-5-sulfonamide]	30.3%	-6.6%
CN1CCN(C2CCc3ccc(N(C)S(=O)(=O)c4c(Cl)nc5sccn45)cc32)CC1 (centres unmarked) [Compound 16, 6-chloro-N-methyl-N-[3-(4-methylpiperazin-1-yl)-2,3-dihydro-1H-inden-5-yl]imidazo[2,1-b][1,3]thiazole-5-sulfonamide]	72.7%	29%
CC1(C)CC(=NNC(=N)N)c2cc(NS(=O)(=O)c3c(Cl)nc4sccn34)ccc21 [Compound 20, 2-(6-{[(6-chloroimidazo[2,1-b][1,3]thiazol-5-yl)sulfonyl]amino}-3,3-dimethyl-2,3-dihydro-1H-inden-1-ylidene)hydrazinecarboximidamide hydrochloride]	87.7%	77.2%
N=C(N)NN=C1CCc2cc(NS(=O)(=O)c3c(Cl)nc4sccn34)ccc21 [Compound 21, 2-(5-{[(6-chloroimidazo[2,1-b][1,3]thiazol-5-yl)sulfonyl]amino}-2,3-dihydro-1H-inden-1-ylidene)hydrazinecarboximidamide hydrochloride]	86.9%	78.1%
CN(c1ccc2c(c1)/C(=N\NC(=N)N)CC2)S(=O)(=O)c1c(Cl)nc2sccn12 [Compound 22, 2-(6-{[(6-chloroimidazo[2,1-b][1,3]thiazol-5-yl)sulfonyl](methyl)amino}-2,3-dihydro-1H-inden-1-ylidene)hydrazinecarboximidamide hydrochloride]	89.2%	83.9%
CN1CCOc2cc(S(=O)(=O)Nc3ccc4c(c3)/C(=N\NC(=N)N)CC4)ccc21 [Compound 23, 2-(6-{[(4-methyl-3,4-dihydro-2H-1,4-benzoxazine-7-yl)sulfonyl]amino}-2,3-dihydro-1H-inden-1-ylidene)hydrazinecarboximidamide hydrochloride]	87.3%	69.3%
O=S(=O)(Nc1ccc2c(c1)C(=NNC1=NCCN1)CC2)c1c(Cl)nc2sccn12 [Compound 24, 6-chloro-N-[3-(4,5-dihydro-1H-imidazol-2-ylhydrazono)-2,3-dihydro-1H-inden-5-yl]imidazo[2,1-b][1,3]thiazole-5-sulfonamide hydrochloride]	87.7%	83.3%
CN1CCOc2cc(S(=O)(=O)Nc3ccc4c(c3)C(=NNC3=NCCN3)CC4)ccc21 [Compound 26, N-[3-(4,5-dihydro-1H-imidazol-2-ylhydrazono)-2,3-dihydro-1H-inden-5-yl]-4-methyl-3,4-dihydro-2H-1,4-benzoxazine-7-sulfonamide hydrochloride]	84.6%	51%
